# EP1114060B1, “PROCESS FOR PRODUCING PEPTIDES FROM BIOLOGICAL FLUIDS AND PEPTIDES […] SAID PROCESS” (NIZO food research, priority 1998, dated 2003)
# Bridges are numbered along the chain shown (N, C = ends). Where no end group is shown, it is not given here. [ ]: non-standard residue; d: D form. Dhb = C/C=C(\N)C(=O)O; Dha = C=C(N)C(=O)O
# Tested on: Micrococcus flavus DSM 1790
# Test: plate diffusion assay for antibacterial activity
# Assay type: cell-based
# Conditions: fraction desorbed with 1 M KCI in phosphate buffer, pH 7.0
# Description: Antibacterial activities of the peptide mixtures and/or isolated peptides were determined by a plate diffusion assay using Micrococcus flavus DSM 1790 as indicator organism. M. flavus was grown in MF broth (0.1% sucrose, 1% peptone, 0.3% meat extract, 0.2% NaCI, 0.15% yeast extract pH 7.0). Peptide mixtures were tested at concentrations from 0.2 mg/ml to 50 mg/ml in bidistilled water.
substance,measurement,value
"nisin A (I[Dhb]SI[Dha]LCTPGCKTGALMGCNMKTATCHCSIHV[Dha]K; bridge 23-26, 13-19, 8-11, 25-28, 3-7; not fully specified (bridges); UniProt P13068 24-57, looked up) [lantibiotic]",activity against Micrococcus flavus,showed activity
